Where a name gives a salt, the structure may show the parent alone.

Assay [1] relates to leukotriene pathway in human whole blood (LTB4). Kind of assay: Human whole blood assay (LTB4 after calcium ionophore A23187 stimulation). It counts as cell-based. The note with it: Homo sapiens, human whole blood diluted 1:1 in RPMI, 15 min pre-incubation, A23187 7 μg/mL for 30 min at 37° Celsius. The essentials:
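Heparinised human whole blood, diluted 1:1 in RPMI, was preincubated with compound for 15 min at 37° C. before stimulation with A23187 (7 μg/mL) for 30 min. Plasma LTB4 was measured by immunoassay kit and IC50 obtained by 4-parameter fit; single replicate per plate, blood from at least one donor.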

Assay [2] has as its target human FLAP (Homo sapiens (Human), UniProt P20292). Put plainly: FLAP binding assay (HTRF format). The note with it: human FLAP-containing Sf-9 membranes, 25 nM HTRF ligand, 2 h; average of runs; read-out: FLAP Binding wild type HTRF Ki. The method, then: The ability of the compounds of the present invention to treat a FLAP-mediated disease and/or disorder, or associated symptoms or complications thereof, was determined using the following procedures. Binding assay data represent the average value obtained from two different assay plates, with samples run in duplicate on each plate. Human whole blood assay data represent a single replicate on an assay plate using whole blood from at least one healthy donor.
The assay below is used to test the modulatory activity of compounds against FLAP. Human and mouse FLAP-encoding DNA was amplified by polymerase chain reaction and cloned into pFastBacl (Invitrogen) with a NH2-terminal 6-His tag for expression in Spodoptera frugiperda (Sf-9) cells. FLAP-containing membranes were prepared as was a FITC-labeled FLAP modulator (3-(3-(tert-butylthio)-1-(4-chlorobenzyl)-5-(quinolin-2-ylmethoxy)-1H-indol-2-yl)-2,2-dimethylpropanoic acid). The FLAP binding assay is performed in HTRF format (homogeneous time resolved fluorescence). […] The reaction is allowed to proceed for two hours after which the plate is read on an Envision plate reader in HTRF mode. Data are expressed as a HTRF ratio.
For human FLAP binding assays, data are analyzed with 3DX Explorer software. […] For analysis, data from multiple runs are averaged and each compound may be tested in 2 to 20 runs. Each run comprises two plates and each plate includes duplicates. Data from each plate is averaged and data are imported into 3DX. The data from multiple runs are aggregated as the average of duplicates of the calculated ratios in order to calculate Ki and IC50 values. Numbers in parentheses are the number of runs for the assay.

Chain of human FLAP (P20292 whole entry): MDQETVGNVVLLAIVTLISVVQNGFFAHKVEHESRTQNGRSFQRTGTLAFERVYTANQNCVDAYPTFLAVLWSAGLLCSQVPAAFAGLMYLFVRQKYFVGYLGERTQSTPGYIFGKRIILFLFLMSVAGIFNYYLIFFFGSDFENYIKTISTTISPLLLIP

With `Cc1ccc(COc2ccc3nc(C4CCCC[C@@H]4C(=O)O)n(Cc4ccc(C#N)cc4)c3c2)nc1` (mixture of isomers) [Example 18, racemic trans-2-{1-(4-Cyanobenzyl)-6-[(5-methylpyridin-2-yl)methoxy]-1H-benzimidazol-2-yl}cyclohexanecarboxylic acid as the TFA salt], the IC50 in assay [1] is greater than 10000 nM. Also, the inhibition constant Ki in assay [2] stood at 53 nM. On the same counts, the results for `Cc1ccc(COc2ccc3nc(C4CCCC[C@H]4C(=O)O)n(Cc4ccc(C#N)cc4)c3c2)nc1` (mixture of isomers) [Example 37, racemic cis-2-{1-(4-Cyanobenzyl)-6-[(5-methylpyridin-2-yl)methoxy]-1H-benzimidazol-2-yl}cyclohexanecarboxylic acid as the TFA salt] are 680 nM and 26 nM. On to `Cn1ccc(COc2ccc3nc([C@@H]4CCCC[C@@H]4C(=O)O)n(Cc4ccc(C#N)cc4)c3c2)n1` (racemic) [Example 47, racemic cis-2-{1-(4-Cyanobenzyl)-6-[(1-methyl-1H-pyrazol-3-yl)methoxy]-1H-benzimidazol-2-yl}cyclohexanecarboxylic acid as the TFA salt], for which the Ki in assay [2] was roughly 490 nM. For the compound `Cn1ccc(COc2ccc3nc(C4CCCC[C@@H]4C(=O)O)n(Cc4ccc(C#N)cc4)c3c2)n1` (mixture of isomers) [Example 48, racemic trans-2-{1-(4-Cyanobenzyl)-6-[(1-methyl-1H-pyrazol-3-yl)methoxy]-1H-benzimidazol-2-yl}cyclohexanecarboxylic acid as the TFA salt], the Ki in assay [2] was roughly 750 nM. Take `Cc1ccc(Cn2c(C3[C@@H](C(=O)O)C3(C)C)nc3c(F)cc(OCc4ccc(C)cn4)cc32)cc1` (mixture of isomers) [Example 64, racemic cis-3-{4-Fluoro-1-(4-methylbenzyl)-6-[(5-methylpyridin-2-yl)methoxy]-1H-benzimidazol-2-yl}-2,2-dimethylcyclopropanecarboxylic acid as the TFA salt]: the IC50 in assay [1] is 3280 nM. The Ki in assay [2] was 290 nM. The like results for `Cc1ccc(COc2ccc3nc([C@H]4CCCC[C@H]4C(=O)O)n(Cc4ccc(-c5ncc(Cl)cn5)cc4)c3c2)nc1` (racemic) [Example 80, racemic cis-2-{1-[4-(5-Chloropyrimidin-2-yl)benzyl]-6-[(5-methylpyridin-2-yl)methoxy]-1H-benzimidazol-2-yl}cyclohexanecarboxylic acid] were, in that order, 300 nM and 3.3 nM.

On to `Cn1cc(Cl)c(COc2ccc3nc([C@@H]4CCCC[C@@H]4C(=O)O)n(Cc4ccc(N5CCCCC5)cc4)c3c2)n1` (racemic) [Example 82, racemic cis-2-{6-[(4-Chloro-1-methyl-1H-pyrazol-3-yl)methoxy]-1-(4-piperidin-1-ylbenzyl)-1H-benzimidazol-2-yl}cyclohexanecarboxylic acid], for which the IC50 in assay [1] was 170 nM. Besides, the Ki in assay [2] was found to be 7.9 nM. Regarding `Cn1cc(Cl)c(COc2ccc3nc([C@@H]4CCCC[C@@H]4C(=O)O)n(Cc4ccc(OC(F)(F)F)cc4F)c3c2)n1` (racemic) [Example 83, racemic cis-2-{6-[(4-Chloro-1-methyl-1H-pyrazol-3-yl)methoxy]-1-[2-fluoro-4-(trifluoromethoxy)benzyl]-1H-benzimidazol-2-yl}cyclohexanecarboxylic acid], the IC50 in assay [1] is 350 nM. The Ki in assay [2] amounted to 4.2 nM. In the case of `Cc1ccc(COc2cc3c(cc2Cl)nc([C@H]2CCCC[C@H]2C(=O)O)n3Cc2ccc(OC(F)(F)F)cc2F)nc1` (racemic) [Example 110, racemic cis-2-{5-Chloro-1-[2-fluoro-4-(trifluoromethoxy)benzyl]-6-[(5-methylpyridin-2-yl)methoxy]-1H-benzimidazol-2-yl}cyclohexanecarboxylic acid as the HCl salt], in assay [2], the Ki was determined as 920 nM. Turning to `Cn1ccc(COc2ccc3nc([C@@H]4[C@@H](C(=O)O)C4(C)C)n(Cc4ccc(Br)cc4)c3c2)n1` (racemic) [Example 117, racemic trans-3-{1-(4-Bromobenzyl)-6-[(1-methyl-1H-pyrazol-3-yl)methoxy]-1H-benzimidazol-2-yl}-2,2-dimethylcyclopropanecarboxylic acid as the TFA salt], the inhibitory constant (Ki) in assay [2] is roughly 1880 nM. For the compound `Cc1cccc(COc2ccc3nc([C@@H]4[C@H](C(=O)O)C4(C)C)n(Cc4ccc(Br)cc4)c3c2)n1` (racemic) [Example 133, racemic cis-3-{1-(4-Bromobenzyl)-6-[(6-methylpyridin-2-yl)methoxy]-1H-benzimidazol-2-yl}-2,2-dimethylcyclopropanecarboxylic acid], in assay [2], the Ki was roughly 1500 nM.

Regarding `Cc1ccc(COc2ccc3nc([C@@H]4CCCC[C@@H]4C(=O)O)n(Cc4ccc(C#N)cc4)c3c2)nc1` (stereo in doubt) [Example 38, (1S*,2R*)-2-{1-(4-Cyanobenzyl)-6-[(5-methylpyridin-2-yl)methoxy]-1H-benzimidazol-2-yl}cyclohexanecarboxylic acid], the Ki in assay [2] is greater than 10000 nM. As for `CCC(CC)(Cc1nc2ccc(OCc3ccc(C)cn3)cc2n1Cc1ccc(C#N)cc1)C(=O)O` [Example 19, 2-({1-(4-Cyanobenzyl)-6-[(5-methylpyridin-2-yl)methoxy]-1H-benzimidazol-2-yl}methyl)-2-ethylbutanoic acid as the TFA salt], in assay [2], the Ki was roughly 750 nM. The same measure, in the same setting: the result for `CCC(CC)(Cc1nc2ccc(OCc3ccn(C)n3)cc2n1Cc1ccc(N2CCCCC2)cc1)C(=O)O` [Example 43, 2-Ethyl-2-({6-[(1-methyl-1H-pyrazol-3-yl)methoxy]-1-(4-piperidin-1-ylbenzyl)-1H-benzimidazol-2-yl}methyl)butanoic acid] reads roughly 940 nM; that for `CCC(CC)(Cc1nc2ccc(OCc3ccn(C)n3)cc2n1Cc1ccc(OC(F)(F)F)cc1)C(=O)O` [Example 50, 2-Ethyl-2-({6-[(1-methyl-1H-pyrazol-3-yl)methoxy]-1-[4-(trifluoromethoxy)benzyl]-1H-benzimidazol-2-yl}methyl)butanoic acid], roughly 100 nM; that for `Cn1ccc(COc2ccc3nc(CC(C)(C)C(=O)O)n(Cc4ccc(Br)cc4)c3c2)n1` [Example 107, 3-{1-(4-Bromobenzyl)-6-[(1-methyl-1H-pyrazol-3-yl)methoxy]-1H-benzimidazol-2-yl}-2,2-dimethylpropanoic acid], 430 nM. Same read-out and setting: the result for `Cc1cccc(COc2ccc3nc(CC(C)(C)C(=O)O)n(Cc4ccc(Br)cc4)c3c2)n1` [Example 108, 3-{1-(4-Bromobenzyl)-6-[(6-methylpyridin-2-yl)methoxy]-1H-benzimidazol-2-yl}-2,2-dimethylpropanoic acid] reads 2240 nM.

As for `Cc1cnc(COc2ccc3nc(CC(C)(C)C(=O)O)n(Cc4ccc(N5CCC(C)CC5)cc4)c3c2)c(F)c1` [Example 185, 3-{6-[(3-Fluoro-5-methylpyridin-2-yl)methoxy]-1-[4-(4-methylpiperidin-1-yl)benzyl]-1H-benzimidazol-2-yl}-2,2-dimethylpropanoic acid], the IC50 in assay [1] amounted to 910 nM. The same measure, in the same setting: then `CCC(CC)(Cc1nc2ccc(OCc3ccn(C)n3)cc2n1Cc1ccc(N2CCC(C(F)(F)F)CC2)cc1F)C(=O)O` [Example 189, 2-ethyl-2-((1-(2-fluoro-4-(4-(trifluoromethyl)piperidin-1-yl)benzyl)-6-((1-methyl-1H-pyrazol-3-yl)methoxy)-1H-benzo[d]imidazol-2-yl)methyl)butanoic acid], with 1480 nM.

(Values after US8952177B2 (Janssen Pharmaceutica NV, priority 2013, dated 2015).)
